Test results: the supplement of paper PMC10883282

Columns and labels:
Test in all cases: relative viability vs DMSO control (72 h) (fraction); higher = more viable cells
SYO-1 = tested on: SYO-1
Method in brief: (§1)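 Sarcoma cell lines were plated in 384 wells to reach 80–90% confluence, treated after 24 h with 2.5 µl of serially diluted compound and held 72 h at 37 °C, 5% CO2. Relative viability was taken as percent growth from ATPLite readings, averaged over up to triplicate wells. The values were rescaled so that 1 marks full and 0 marks none.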

HT1080 = tested on: HT1080
Method in brief: as §1

KHOS-NP = tested on: KHOS-NP
Method in brief: as §1

VA-ES-BJ = tested on: VA-ES-BJ
Method in brief: as §1

SK-LMS-1 = tested on: SK-LMS-1
Method in brief: as §1

A204 = tested on: A204
Method in brief: as §1

HS729 = tested on: HS729
Method in brief: as §1

SW684 = tested on: SW684
Method in brief: as §1

SW872 = tested on: SW872
Method in brief: as §1

SW1353 = tested on: SW1353
Method in brief: as §1

MES-SA = tested on: MES-SA
Method in brief: as §1

G401 = tested on: G401
Method in brief: as §1

COc1cc(N2CCC(N3CCN(C)CC3)CC2)ccc1Nc1ncc(Cl)c(Nc2ccccc2P(C)(C)=O)n1 [Brigatinib]
Settings	relative viability
A204, 0.00017 µM	1.06
A204, 0.00051 µM	1.08
A204, 0.00152 µM	1.03
A204, 0.00457 µM	1.06
A204, 0.01372 µM	1.04
A204, 0.04115 µM	1.03
A204, 0.1235 µM	1.06
A204, 0.3704 µM	0.991
A204, 1.111 µM	0.692
A204, 3.333 µM	0.262
A204, 10 µM	0.0135
G401, 0.00017 µM	0.983
G401, 0.00051 µM	0.972
G401, 0.00152 µM	0.9624
G401, 0.00457 µM	0.9721
G401, 0.01372 µM	0.941
G401, 0.04115 µM	0.909
G401, 0.1235 µM	0.923
G401, 0.3704 µM	0.764
G401, 1.111 µM	0.626
G401, 3.333 µM	0.261
G401, 10 µM	0.0657
HS729, 0.00017 µM	0.91
HS729, 0.00051 µM	0.925
HS729, 0.00152 µM	0.933
HS729, 0.00457 µM	0.909
HS729, 0.01372 µM	0.858
HS729, 0.04115 µM	0.771
HS729, 0.1235 µM	0.685
HS729, 0.3704 µM	0.595
HS729, 1.111 µM	0.417
HS729, 3.333 µM	0.199
HS729, 10 µM	0.0341
HT1080, 0.00017 µM	1.01
HT1080, 0.00051 µM	1.03
HT1080, 0.00152 µM	1.02
HT1080, 0.00457 µM	1.01
HT1080, 0.01372 µM	1
HT1080, 0.04115 µM	0.984
HT1080, 0.1235 µM	1.01
HT1080, 0.3704 µM	1.03
HT1080, 1.111 µM	0.93
HT1080, 3.333 µM	0.573
HT1080, 10 µM	0.151
KHOS-NP, 0.00017 µM	1.04
KHOS-NP, 0.00051 µM	1.06
KHOS-NP, 0.00152 µM	1.05
KHOS-NP, 0.00457 µM	1.02
KHOS-NP, 0.01372 µM	1.03
KHOS-NP, 0.04115 µM	1.03
KHOS-NP, 0.1235 µM	0.994
KHOS-NP, 0.3704 µM	0.985
KHOS-NP, 1.111 µM	0.852
KHOS-NP, 3.333 µM	0.534
KHOS-NP, 10 µM	0.21
MES-SA, 0.00017 µM	0.864
MES-SA, 0.00051 µM	0.843
MES-SA, 0.00152 µM	0.866
MES-SA, 0.00457 µM	0.893
MES-SA, 0.01372 µM	0.859
MES-SA, 0.04115 µM	0.894
MES-SA, 0.1235 µM	0.956
MES-SA, 0.3704 µM	1.01
MES-SA, 1.111 µM	0.948
MES-SA, 3.333 µM	0.385
MES-SA, 10 µM	0.135
SK-LMS-1, 0.00017 µM	1.04
SK-LMS-1, 0.00051 µM	1
SK-LMS-1, 0.00152 µM	1.02
SK-LMS-1, 0.00457 µM	0.986
SK-LMS-1, 0.01372 µM	0.998
SK-LMS-1, 0.04115 µM	1.02
SK-LMS-1, 0.1235 µM	1.02
SK-LMS-1, 0.3704 µM	0.924
SK-LMS-1, 1.111 µM	0.757
SK-LMS-1, 3.333 µM	0.556
SK-LMS-1, 10 µM	0.331
SW684, 0.00017 µM	1.04
SW684, 0.00051 µM	1.05
SW684, 0.00152 µM	1.05
SW684, 0.00457 µM	0.992
SW684, 0.01372 µM	1.06
SW684, 0.04115 µM	1.06
SW684, 0.1235 µM	1.04
SW684, 0.3704 µM	1.02
SW684, 1.111 µM	0.921
SW684, 3.333 µM	0.573
SW684, 10 µM	0.2498
SW872, 0.00017 µM	0.989
SW872, 0.00051 µM	0.969
SW872, 0.00152 µM	0.967
SW872, 0.00457 µM	0.94
SW872, 0.01372 µM	0.926
SW872, 0.04115 µM	0.885
SW872, 0.1235 µM	0.818
SW872, 0.3704 µM	0.626
SW872, 1.111 µM	0.469
SW872, 3.333 µM	0.321
SW872, 10 µM	0.288
SW1353, 0.00017 µM	0.909
SW1353, 0.00051 µM	0.922
SW1353, 0.00152 µM	0.907
SW1353, 0.00457 µM	0.903
SW1353, 0.01372 µM	0.896
SW1353, 0.04115 µM	0.851
SW1353, 0.1235 µM	0.824
SW1353, 0.3704 µM	0.647
SW1353, 1.111 µM	0.449
SW1353, 3.333 µM	0.147
SW1353, 10 µM	0.0131
SYO-1, 0.00017 µM	0.95
SYO-1, 0.00051 µM	0.952
SYO-1, 0.00152 µM	0.922
SYO-1, 0.00457 µM	0.889
SYO-1, 0.01372 µM	0.846
SYO-1, 0.04115 µM	0.768
SYO-1, 0.1235 µM	0.706
SYO-1, 0.3704 µM	0.501
SYO-1, 1.111 µM	0.239
SYO-1, 3.333 µM	0.0457
SYO-1, 10 µM	-0.0131
VA-ES-BJ, 0.00017 µM	0.946
VA-ES-BJ, 0.00051 µM	0.945
VA-ES-BJ, 0.00152 µM	0.943
VA-ES-BJ, 0.00457 µM	0.941
VA-ES-BJ, 0.01372 µM	0.983
VA-ES-BJ, 0.04115 µM	0.91
VA-ES-BJ, 0.1235 µM	0.865
VA-ES-BJ, 0.3704 µM	0.662
VA-ES-BJ, 1.111 µM	0.272
VA-ES-BJ, 3.333 µM	0.144
VA-ES-BJ, 10 µM	0.125
